This passage reports EC50 and CC50 results from patent US20230091047A1 (priority 2019, published 2023).

Structures are written as SMILES. Like-named read-outs stand apart in the source and are kept apart here.

By EC50 is commonly meant the midpoint of the concentration-response curve. Broadly, the CC50 is the concentration that lowers cell viability or growth by half. Higher therefore signals lower toxicity to the cells.

Series [1] concerns HBV (HepG2.117 cell line, inducibly HBV producing). The series is described as follows: Anti-HBV activity: intracellular HBV DNA by real-time PCR in HepG2.117 cells after 3 days of treatment. Type of series: cell-based, hepatitis B virus. An outline of the steps: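 Readout is intracellular HBV DNA, measured by real-time PCR with HBV-specific primers and probe after 3 days of exposure to serial compound dilutions. Cells are the stable HepG2.117 line, where HBV replication is induced in the absence of doxycycline.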

A short description of another series: in vitro. Type of series: cell-based. To be noted: human, HepG2 or HepG2.117 cells, mean value. An outline of the steps:
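Luminescent ATP quantitation served as the viability endpoint following a 3- or 4-day incubation with test compounds.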

Where [2] appears, read: Hepatitis B virus, HepG2.117, 72 h, HepG2.117 cells, intracellular HBV DNA by real-time PCR, 3 days of treatment, mean value; read-out: EC50 (μM, mean value).
Setting [3] is: ATPlite, 3-days incubation (not marked with *).
Where [4] appears, read: Hepatitis B virus, HepG2.117, 72 h, HepG2.117 cells, 3 days of treatment, intracellular HBV DNA by real-time PCR; mean value; read-out: EC50 (μM, mean value).
Where [5] appears, read: 3-days incubation (unmarked values), ATPlite.

For the compound `CNC(=O)c1ccc(-n2c(N[C@H](C)c3cc(C)no3)nc3c(c2=O)C[C@@H](C)N(C(=O)c2ccc(Cl)c(Cl)c2)C3)cc1` (single isomer, unassigned) [Compound C433a], in series [1] (setting [2]), the EC50 was 1.89 µM. For the same compound, the CC50 at 3 days in the series “in vitro” (setting [3]) was > 50 µM.
On to `CNC(=O)c1ccc(-n2c(NC(C)(C)C)nc3c(c2=O)C[C@@H](C)N(C(=O)c2ccc(Cl)c(C(F)(F)F)c2)C3)c(Cl)c1` (single isomer, unassigned) [Compound C677a], for which the EC50 in series [1] (setting [4]) was determined as 0.02 µM. Also, the CC50 at 3 days in the series “in vitro” (3-days incubation (unmarked values), ATPlite viability) is > 50 µM.
As for `CNC(=O)[C@H]1CC[C@H](n2c(N[C@@H](C)c3ccc(C(F)(F)F)cc3)nc3c(c2=O)C[C@@H](C)N(C(=O)c2ccc(Cl)c(Cl)c2)C3)CC1` [Compound C640], the EC50 in series [1] (setting [2]) was found to be 0.07 µM. Moreover, in the series “in vitro” (setting [3]), the CC50 at 3 days is 5.2 µM.
Consider `CC(C)Nc1nc2c(c(=O)n1-c1ccc(S(C)(=O)=O)cc1)CCN(C(=O)c1ccc3ocnc3c1)C2` [Compound C364], for which the EC50 in series [1] (setting [4]) is > 7.2 µM. Besides, the 50% cytotoxic concentration (CC50) at 3 days in the series “in vitro” (setting [5]) is > 50 µM.
In the same order, the values of `CC(C)Nc1nc2c(c(=O)n1-c1ccc(S(C)(=O)=O)cc1)CCN(C(=O)c1ccc(Cl)c(C3CC3)c1)C2` [Compound C225, 7-(4-chloro-3-cyclopropylbenzoyl)-3-[4-(methanesulfonyl)phenyl]-2-[(propan-2-yl)amino]-5,6,7,8-tetrahydropyrido[3,4-d]pyrimidin-4(3H)-one] are 3.46 µM and > 50 µM.
Turning to `CNC(=O)c1ccc(-n2c(NC(C)C)nc3c(c2=O)C[C@@H](C)N(C(=O)c2ccc(Cl)c(Cl)c2)C3)nn1` [Compound C281, 6-[(6R)-7-(3,4-dichlorobenzoyl)-6-methyl-4-oxo-2-[(propan-2-yl)amino]-5,6,7,8-tetrahydropyrido[3,4-d]pyrimidin-3(4H)-yl]-N-methylpyridazine-3-carboxamide], the EC50 in series [1] (setting [4]) was found to be 0.16 µM. Besides, the CC50 at 3 days in “in vitro” (setting [5]) is > 50 µM.
The like results for `CC(C)Nc1nc2c(c(=O)n1-c1ccc(S(C)(=O)=O)cc1)CCN(C(=O)c1nc3ccccc3[nH]1)C2` [Compound C358] were, in that order, > 50 µM and > 50 µM.
Consider `CNC(=O)c1cc(Cl)c(-n2c(NC(C)C)nc3c(c2=O)C[C@@H](C)N(C(=O)c2ccc(Cl)c(Cl)c2)C3)c(Cl)c1` [Compound C376], for which, in series [1] (setting [4]), the EC50 was 0.09 µM. Besides, the CC50 at 3 days in the series “in vitro” (setting [5]) is > 50 µM.
With `Cc1cc(-n2cccn2)ccc1-n1c(NC(C)C)nc2c(c1=O)C[C@@H](C)N(C(=O)c1ccc(Cl)c(Cl)c1)C2` [Compound C308, (6R)-7-(3,4-dichlorobenzoyl)-6-methyl-3-[2-methyl-4-(1H-pyrazol-1-yl)phenyl]-2-[(propan-2-yl)amino]-5,6,7,8-tetrahydropyrido[3,4-d]pyrimidin-4(3H)-one], the EC50 in series [1] (setting [4]) worked out at 0.11 µM. Besides, the CC50 at 3 days in the series “in vitro” (setting [5]) was > 50 µM.
In the same order, the values of `COc1ccc(CNc2nc3c(c(=O)[nH]2)C[C@H](C)N(C(=O)c2ccc(Cl)c(Cl)c2)C3)cc1` [Compound C63B, (6S)-7-(3,4-dichlorobenzoyl)-2-{[(4-methoxyphenyl)methyl]amino}-6-methyl-5,6,7,8-tetrahydropyrido[3,4-d]pyrimidin-4(3H)-one] are 1.63 µM and 35.3 µM.
Consider `CNC(=O)c1ccc(-n2c(NCc3nncn3-c3ccccc3)nc3c(c2=O)C[C@@H](C)N(C(=O)c2ccc(Cl)c(Cl)c2)C3)cc1` [Compound C542], for which the EC50 in series [1] (setting [2]) is 12.9 µM. Moreover, the CC50 at 3 days in “in vitro” (setting [3]) was > 50 µM.
As for `CNC(=O)c1ccc(-n2c(NC(C)c3nccs3)nc3c(c2=O)C[C@@H](C)N(C(=O)c2ccc(Cl)c(Cl)c2)C3)cc1` (stereo partly shown) [Compound C434], the 50% effective concentration (EC50) in series [1] (setting [2]) is 0.57 µM. The CC50 at 3 days in “in vitro” (setting [3]) was > 50 µM.
Turning to `COc1ccc(CNc2nc3c(c(=O)n2CC(C)C)CCN(C(=O)c2ccc(Cl)c(Cl)c2)C3)cc1` [Compound C67, 7-(3,4-dichlorobenzoyl)-2-{[(4-methoxyphenyl)methyl]amino}-3-(2-methylpropyl)-5,6,7,8-tetrahydropyrido[3,4-d]pyrimidin-4(3H)-one], the EC50 in series [1] (setting [4]) came out at 9.51 µM. In addition, the CC50 at 3 days in “in vitro” (setting [5]) was > 50 µM.
Consider `CNC(=O)c1ccc(-n2c(NC3(c4ccccc4)CC3)nc3c(c2=O)C[C@@H](C)N(C(=O)c2ccc(Cl)c(Cl)c2)C3)cc1` [Compound C662], for which, in series [1] (setting [2]), the EC50 amounted to 0.16 µM. Also, in “in vitro” (setting [3]), the CC50 at 3 days was found to be 30.5 µM.
With `CNC(=O)c1cc(-n2c(NC(C)C)nc3c(c2=O)C[C@@H](C)N(C(=O)c2cccc(C(F)(F)F)c2)C3)n(C)n1` [Compound C646], the EC50 in series [1] (setting [2]) came to 1.62 µM. The CC50 at 3 days in the series “in vitro” (setting [3]) is > 50 µM.
Consider `COc1ccc(CNc2nc3c(c(=O)n2C2CCS(=O)(=O)CC2)CCN(C(=O)c2ccc(Cl)c(Cl)c2)C3)cc1` [Compound C119, 4-[7-(3,4-dichlorobenzoyl)-2-{[(4-methoxyphenyl)methyl]amino}-4-oxo-5,6,7,8-tetrahydropyrido[3,4-d]pyrimidin-3(4H)-yl]-1λ^6-thiane-1,1-dione], for which, in series [1] (setting [4]), the EC50 was 6.95 µM. Half-maximal cytotoxicity in “in vitro” (setting [5]) (CC50 at 3 days) was put at 33.5 µM.
Consider `CCOC(=O)c1cccc(-n2c(NCc3ccc(OC)cc3)nc3c(c2=O)CCN(C(=O)c2ccc(Cl)c(Cl)c2)C3)c1` [Compound C74, ethyl 3-[7-(3,4-dichlorobenzoyl)-2-{[(4-methoxyphenyl)methyl]amino}-4-oxo-5,6,7,8-tetrahydropyrido[3,4-d]pyrimidin-3(4H)-yl]benzoate], for which the 50% effective concentration (EC50) in series [1] (setting [4]) came to 1.43 µM. In addition, the CC50 at 3 days in “in vitro” (setting [5]) is > 50 µM.
Regarding `CNC(=O)c1ccc(-n2c(NC(C)C)nc3c(c2=O)C[C@@H](C)N(C(=O)c2cc(F)c(Br)cc2F)C3)cc1` [Compound C574], the EC50 in series [1] (setting [2]) is 0.73 µM. The CC50 at 3 days in “in vitro” (setting [3]) was > 50 µM.
With `COc1ccccc1-n1c(NCC2CC2)nc2c(c1=O)CCN(C(=O)c1ccc(Cl)c(Cl)c1)C2` [Compound C50, 2-[(cyclopropylmethyl)amino]-7-(3,4-dichlorobenzoyl)-3-(2-methoxyphenyl)-5,6,7,8-tetrahydropyrido[3,4-d]pyrimidin-4(3H)-one], the EC50 in series [1] (setting [4]) is 5.85 µM. It took 26.7 µM to reach half-maximal cytotoxicity in “in vitro” (setting [5]) (CC50 at 3 days).
On to `O=C(c1ccc(Cl)c(Cl)c1)N1CCc2c(nc(NCc3ccccc3)[nH]c2=O)C1` [Compound C21, 2-(benzylamino)-7-(3,4-dichlorobenzoyl)-5,6,7,8-tetrahydropyrido[3,4-d]pyrimidin-4(3H)-one], for which the EC50 in series [1] (setting [4]) amounted to 7.51 µM. In “in vitro” (4-days incubation (values marked with *), ATPlite), this compound had a half-maximal cytotoxic concentration (CC50) at 4 days of 24.7 µM.
With `CC(C)Nc1nc2c(c(=O)n1-c1ccc(C(=O)NC3COC3)cc1)C[C@@H](C)N(C(=O)c1ccc(Cl)c(Cl)c1)C2` [Compound C209, 4-[(6R)-7-(3,4-dichlorobenzoyl)-6-methyl-4-oxo-2-[(propan-2-yl)amino]-5,6,7,8-tetrahydropyrido[3,4-d]pyrimidin-3(4H)-yl]-N-(oxetan-3-yl)benzamide], the half-maximal effective concentration (EC50) in series [1] (setting [4]) was 0.82 µM. Moreover, the CC50 at 3 days in “in vitro” (setting [5]) is > 50 µM.
Consider `CNC(=O)c1ccc(-n2c(N[C@@H](C)c3ccccc3C(F)(F)F)nc3c(c2=O)C[C@@H](C)N(C(=O)c2ccc(Cl)c(Cl)c2)C3)cc1` [Compound C443], for which the EC50 in series [1] (setting [2]) was found to be 0.45 µM. The CC50 at 3 days in the series “in vitro” (setting [3]) turned out to be 7.2 µM.
In the same order, the values of `CC(C)Nc1nc2c(c(=O)n1-c1ccc(-n3cncn3)cc1)C[C@@H](C)N(C(=O)c1ccc(Cl)c(Cl)c1)C2` [Compound C611] are 0.17 µM and > 50 µM.
